Results taken from the supplement of paper PMC10307832.

Columns and labels:
Experiment in all cases: relative viability (nuclei count vs DMSO), 5 days (fraction); higher = more cells survive
201T = tested on: 201T
Outline: (§1)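 After 5 days of treatment, lung cancer cells in 1536-well plates were fixed and stained in a single step (final 0.05% Triton X-100, 1% formaldehyde, 1 ug/ml Hoechst) and their nuclei counted on 4× images. Treatment had been applied by pin tool the day after seeding as one drug alone or as a fixed anchor-drug dose with five library-drug doses (not always all listed) in √10 steps. Relative viability is the nuclei count of treated wells divided by that of vehicle wells, and values are medians of duplicate plates.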

ABC-1 = tested on: ABC-1
Outline: as §1

BEN = tested on: BEN
Outline: as §1

CAL-12T = tested on: CAL-12T
Outline: as §1

EKVX = tested on: EKVX
Outline: as §1

HARA = tested on: HARA
Outline: as §1

HCC-366 = tested on: HCC-366
Outline: as §1

LK-2 = tested on: LK-2
Outline: as §1

LU99A = tested on: LU99A
Outline: as §1

NCI-H1437 = tested on: NCI-H1437
Outline: as §1

NCI-H1666 = tested on: NCI-H1666
Outline: as §1

NCI-H2170 = tested on: NCI-H2170
Outline: as §1

NCI-H3122 = tested on: NCI-H3122
Outline: as §1

NCI-H441 = tested on: NCI-H441
Outline: as §1

NCI-H727 = tested on: NCI-H727
Outline: as §1

NCI-H838 = tested on: NCI-H838
Outline: as §1

PC-14 = tested on: PC-14
Outline: as §1

SW 900 = tested on: SW 900
Outline: as §1

SMILES: COc1cc(N2CCC(C(N)=O)CC2)ccc1Nc1nc(N)c(Cl)c(Nc2ccccc2S(=O)(=O)C(C)C)n1 [HG-5-88-01] + NC(=O)Nc1cc(-c2cccc(F)c2)sc1C(=O)N[C@H]1CCCNC1 [AZD7762] (partner 0.2 µM)
- relative viability (201T; first compound 0.04 µM): 0.54
- relative viability (201T; first compound 0.1265 µM): 0.62
- relative viability (201T; first compound 1.265 µM): 0.631
- relative viability (201T; first compound 4 µM): 0.374
- relative viability (ABC-1; first compound 0.04 µM): 0.663
- relative viability (ABC-1; first compound 0.1265 µM): 0.63
- relative viability (ABC-1; first compound 0.4 µM): 0.645
- relative viability (ABC-1; first compound 1.265 µM): 0.688
- relative viability (ABC-1; first compound 4 µM): 0.657
- relative viability (BEN; first compound 0.04 µM): 0.47
- relative viability (BEN; first compound 0.1265 µM): 0.69
- relative viability (BEN; first compound 0.4 µM): 0.635
- relative viability (BEN; first compound 1.265 µM): 0.615
- relative viability (BEN; first compound 4 µM): 0.576
- relative viability (CAL-12T; first compound 0.04 µM): 0.71
- relative viability (CAL-12T; first compound 0.1265 µM): 0.607
- relative viability (CAL-12T; first compound 0.4 µM): 0.501
- relative viability (CAL-12T; first compound 1.265 µM): 0.539
- relative viability (CAL-12T; first compound 4 µM): 0.399
- relative viability (EKVX; first compound 0.04 µM): 0.673
- relative viability (EKVX; first compound 0.1265 µM): 0.622
- relative viability (EKVX; first compound 0.4 µM): 0.695
- relative viability (EKVX; first compound 4 µM): 0.527
- relative viability (HARA; first compound 0.04 µM): 0.493
- relative viability (HARA; first compound 0.1265 µM): 0.313
- relative viability (HARA; first compound 0.4 µM): 0.332
- relative viability (HARA; first compound 1.265 µM): 0.352
- relative viability (HARA; first compound 4 µM): 0.322
- relative viability (HCC-366; first compound 0.04 µM): 0.286
- relative viability (HCC-366; first compound 0.1265 µM): 0.294
- relative viability (HCC-366; first compound 0.4 µM): 0.249
- relative viability (HCC-366; first compound 1.265 µM): 0.234
- relative viability (HCC-366; first compound 4 µM): 0.199
- relative viability (LK-2; first compound 0.04 µM): 0.326
- relative viability (LK-2; first compound 0.1265 µM): 0.329
- relative viability (LK-2; first compound 0.4 µM): 0.301
- relative viability (LK-2; first compound 4 µM): 0.157
- relative viability (LU99A; first compound 0.04 µM): 0.326
- relative viability (LU99A; first compound 0.1265 µM): 0.336
- relative viability (LU99A; first compound 0.4 µM): 0.369
- relative viability (LU99A; first compound 1.265 µM): 0.366
- relative viability (LU99A; first compound 4 µM): 0.295
- relative viability (NCI-H1437; first compound 0.04 µM): 1.13
- relative viability (NCI-H1437; first compound 0.1265 µM): 1.13
- relative viability (NCI-H1437; first compound 0.4 µM): 1.07
- relative viability (NCI-H1437; first compound 4 µM): 1.2
- relative viability (NCI-H1666; first compound 0.04 µM): 0.75
- relative viability (NCI-H1666; first compound 0.1265 µM): 0.783
- relative viability (NCI-H1666; first compound 0.4 µM): 0.779
- relative viability (NCI-H1666; first compound 1.265 µM): 0.771
- relative viability (NCI-H1666; first compound 4 µM): 0.53
- relative viability (NCI-H2170; first compound 0.04 µM): 0.819
- relative viability (NCI-H2170; first compound 0.1265 µM): 0.878
- relative viability (NCI-H2170; first compound 0.4 µM): 0.907
- relative viability (NCI-H2170; first compound 1.265 µM): 0.402
- relative viability (NCI-H2170; first compound 4 µM): 0.934
- relative viability (NCI-H3122; first compound 0.04 µM): 0.744
- relative viability (NCI-H3122; first compound 0.1265 µM): 0.376
- relative viability (NCI-H3122; first compound 0.4 µM): 0.315
- relative viability (NCI-H3122; first compound 1.265 µM): 0.24
- relative viability (NCI-H3122; first compound 4 µM): 0.114
- relative viability (NCI-H441; first compound 0.04 µM): 0.964
- relative viability (NCI-H441; first compound 0.1265 µM): 0.931
- relative viability (NCI-H441; first compound 0.4 µM): 1.19
- relative viability (NCI-H441; first compound 1.265 µM): 1.08
- relative viability (NCI-H441; first compound 4 µM): 0.998
- relative viability (NCI-H727; first compound 0.04 µM): 0.729
- relative viability (NCI-H727; first compound 0.1265 µM): 0.633
- relative viability (NCI-H727; first compound 0.4 µM): 0.597
- relative viability (NCI-H727; first compound 4 µM): 0.377
- relative viability (NCI-H838; first compound 0.04 µM): 0.917
- relative viability (NCI-H838; first compound 0.1265 µM): 0.958
- relative viability (NCI-H838; first compound 0.4 µM): 0.881
- relative viability (NCI-H838; first compound 1.265 µM): 0.749
- relative viability (NCI-H838; first compound 4 µM): 0.847
- relative viability (PC-14; first compound 0.04 µM): 0.345
- relative viability (PC-14; first compound 0.1265 µM): 0.315
- relative viability (PC-14; first compound 0.4 µM): 0.343
- relative viability (PC-14; first compound 1.265 µM): 0.38
- relative viability (PC-14; first compound 4 µM): 0.0818
- relative viability (SW 900; first compound 0.04 µM): 0.582
- relative viability (SW 900; first compound 0.1265 µM): 0.713
- relative viability (SW 900; first compound 0.4 µM): 0.583
- relative viability (SW 900; first compound 1.265 µM): 0.517
- relative viability (SW 900; first compound 4 µM): 0.528
